The target of one test is T1, WEE1 (Homo sapiens, UniProt P30291+Q96SW2).
T1 construct: C-terminal ePL-tagged (DiscoverX, Fremont, CA) full-length WEE1 expression construct; expressed in transfected cells; host or cells: LentiX-HEK293T (Invitrogen), lentiviral transduction; co-expressing GSPT1-GN (G576N, lacking the first 158 amino acids)
As to the kind of experiment: WEE1-ePL degradation assay (LentiX-WEE1-ePL-GSPT1-ND cells, InCELL Hunter luminescence, 4 h). It is filed as cell-based. Conditions: 293T-LentiX WEE1-ePL cells; for DC50: read-out: 293T-LentiX WEE1-ePL Degradation 4 hr (EC50). A digest of the protocol: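 Degradation EC50 was fitted by a four-parameter logistic model, with the upper limit taken from DMSO wells. Luminescence was read with InCELL Hunter reagent after 30 min at room temperature, following a 4 h, 37° C exposure of 2500 cells/well. Cells were LentiX-HEK293T carrying ePL-tagged full-length WEE1, dosed in 10 points (3-fold) from 1 or 10 uM.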

The test system of another test is MKN45 cells. The experiment in a line: MKN45 cell proliferation assay (Cell-Titer-Glo, 120 h). It is filed as cell-based. To be noted: for EC50: Homo sapiens, MKN-45, 120 h, Cell-Titer-Glo, read-out: MKN45 Cell Prolif. 120 hr (EC50); for MKN45 Cell Prolif. 120 hr (Ymin-Obs): minimal percent of DMSO control observed in the concentrations tested. A digest of the protocol:
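Growth inhibition was read as blank-corrected Cell-Titer-Glo luminescence expressed as percent DMSO control after 120 h at 37 C, 400 cells/well. Compounds tested in triplicate as 10-point half-log series from 1 or 10 uM, 0.1% DMSO; four-parameter fit gave EC50, and lowest observed percent control was reported as Ymin-obs.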

The mark [1] stands for this setting: lower limit of the fit (0 = luciferase inhibitor, Ymax = DMSO control).

Where two headings read alike, the source gives them in different places.

Regarding `O=C1CCC(N2Cc3cc(O[C@H]4CCN(Cc5ccc6nc(N7C[C@H]8C[C@@H](C7)O8)ccc6c5)C4)ccc3C2=O)C(=O)N1` (stereo partly drawn) [3-(5-{[(3S)-1-({2-[(1R,5S)-6-oxa-3-azabicyclo[3.1.1]heptan-3-yl]quinolin-6-yl}methyl)pyrrolidin-3-yl]oxy}-1-oxo-2,3-dihydro-1H-isoindol-2-yl)piperidine-2,6-dione], the “293T-LentiX WEE1-ePL Degradation 4 hr (Ymin)” value on WEE1 (setting [1]) was 38. The DC50 at WEE1 is 1.98 nM. Moreover, in the test on MKN45 cells (growth inhibition), the half-maximal effective concentration (EC50) (in general, the concentration that produces a half-maximal response) was found to be 3.19 nM. Also, the “MKN45 Cell Prolif. 120 hr (Ymin-Obs)” value in the test with MKN45 cells is given as 9.79.
On the same counts, the results for `O=C1CCC(N2Cc3cc(O[C@H]4CCN(Cc5ccc6nc(CC(F)F)ccc6c5)C4)ccc3C2=O)C(=O)N1` (stereo partly drawn) [3-(5-{[(3S)-1-{[2-(2,2-difluoroethyl)quinolin-6-yl]methyl}pyrrolidin-3-yl]oxy}-1-oxo-2,3-dihydro-1H-isoindol-2-yl)piperidine-2,6-dione] are 43.5, 33.4 nM, 350 nM and 21.74.
On the same counts, the results for `C[C@@H]1CN(Cc2ccc3nc([C@@H]4CCOC(C)(C)C4)ccc3c2)C[C@H]1Oc1ccc2c(c1)CN(C1CCC(=O)NC1=O)C2=O` (stereo partly drawn) [3-(5-{[(3S,4R)-1-({2-[(4R)-2,2-dimethyloxan-4-yl]quinolin-6-yl}methyl)-4-methylpyrrolidin-3-yl]oxy}-1-oxo-2,3-dihydro-1H-isoindol-2-yl) piperidine-2,6-dione] are 27.43, 4.25 nM, 4.65 nM and 9.178.
On the same counts, the results for `CO[C@H]1C[C@@H](c2ccc3cc(CN4CC[C@H](Oc5ccc6c(c5)CN(C5CCC(=O)NC5=O)C6=O)C4)ccc3n2)C1` (stereo partly drawn) [drawing 577, 3-(1-oxo-5-{[(3S)-1-({2-[(1s,3s)-3-methoxycyclobutyl]quinolin-6-yl}methyl)pyrrolidin-3-yl]oxy}-2,3-dihydro-1H-isoindol-2-yl)piperidine-2,6-dione] are 28.27, 2.09 nM, 2.67 nM and 7.76.
`O=C1CCC(N2Cc3cc(O[C@H]4CCN(Cc5ccc(-c6ccccc6)cn5)C4)ccc3C2=O)C(=O)N1` (stereo partly drawn) [3-(1-oxo-5-{[(3S)-1-[(5-phenylpyridin-2-yl)methyl]pyrrolidin-3-yl]oxy}-2,3-dihydro-1H-isoindol-2-yl)piperidine-2,6-dione]: the “293T-LentiX WEE1-ePL Degradation 4 hr (Ymin)” value at WEE1 (setting [1]) is 46. Moreover, the DC50 on WEE1 was determined as 7.59 nM. The EC50 in the test on MKN45 cells (growth inhibition) turned out to be 131 nM. Moreover, the “MKN45 Cell Prolif. 120 hr (Ymin-Obs)” value in the test on MKN45 cells came to 31.28.
On the same counts, the results for `O=C1CCC(N2Cc3cc(O[C@H]4CCN(Cc5cc6ccccc6[nH]c5=O)C4)ccc3C2=O)C(=O)N1` (stereo partly drawn) [3-(1-oxo-5-{[(3S)-1-[(2-oxo-1,2-dihydroquinolin-3-yl)methyl]pyrrolidin-3-yl]oxy}-2,3-dihydro-1H-isoindol-2-yl)piperidine-2,6-dione] are 37.28, 112 nM, 1710 nM and 30.3825.
On the same counts, the results for `O=C1CCC(N2Cc3cc(O[C@H]4CCN(Cc5cnc6c(c5)CCO6)C4)ccc3C2=O)C(=O)N1` (stereo partly drawn) [3-(5-{[(3S)-1-({2H,3H-furo[2,3-b]pyridin-5-yl}methyl)pyrrolidin-3-yl]oxy}-1-oxo-2,3-dihydro-1H-isoindol-2-yl)piperidine-2,6-dione] are 42, 60.1 nM, 2040 nM and 40.58.
On the same counts, the results for `O=C1CCC(N2Cc3cc(O[C@H]4CCN(Cc5cc6ccc(C(F)(F)F)cc6cn5)C4)ccc3C2=O)C(=O)N1` (stereo partly drawn) [3-(1-oxo-5-{[(3S)-1-{[7-(trifluoromethyl)isoquinolin-3-yl]methyl}pyrrolidin-3-yl]oxy}-2,3-dihydro-1H-isoindol-2-yl)piperidine-2,6-dione] are 31, 1.47 nM, 1.14 nM and 6.875.
`COC[C@@H]1CN(Cc2ccc3nc([C@H]4CCOC(C)(C)C4)ccc3c2)C[C@H]1Oc1ccc2c(c1)CN([C@H]1CCC(=O)NC1=O)C2=O` [(3S)-3-(5-{[(3S,4S)-1-({2-[(4S)-2,2-dimethyloxan-4-yl]quinolin-6-yl}methyl)-4-(methoxymethyl)pyrrolidin-3-yl]oxy}-1-oxo-2,3-dihydro-1H-isoindol-2-yl)piperidine-2,6-dione]: on WEE1 (lower limit of the fit (Ymin=0 luciferase inhibitor, Ymax DMSO control)), the “293T-LentiX WEE1-ePL Degradation 4 hr (Ymin)” value stood at 25.45. Besides, the DC50 on WEE1 was 1.25 nM. In the test with MKN45 cells, the EC50 was found to be 0.558 nM and the “MKN45 Cell Prolif. 120 hr (Ymin-Obs)” value stood at 8.285.
`CC(C)(C)c1ccc2cc(CN3CC[C@H](Oc4ccc5c(c4)CN(C4CCC(=O)NC4=O)C5=O)C3)ccc2n1` (stereo partly drawn) [3-(5-{[(3S)-1-[(2-tert-butylquinolin-6-yl)methyl]pyrrolidin-3-yl]oxy}-1-oxo-2,3-dihydro-1H-isoindol-2-yl)piperidine-2,6-dione]: the “293T-LentiX WEE1-ePL Degradation 4 hr (Ymin)” value at WEE1 (setting [1]) was determined as 29. Further, the DC50 at WEE1 stood at 2.8 nM. The EC50 in the test on MKN45 cells (growth inhibition) stood at 9.2 nM. Further, the “MKN45 Cell Prolif. 120 hr (Ymin-Obs)” value in the test with MKN45 cells was found to be 11.88.
On the same counts, the results for `Cc1cncc(CN2CC[C@H](Oc3ccc4c(c3)CN(C3CCC(=O)NC3=O)C4=O)C2)c1C` (stereo partly drawn) [3-(5-{[(3S)-1-[(4,5-dimethylpyridin-3-yl)methyl]pyrrolidin-3-yl]oxy}-1-oxo-2,3-dihydro-1H-isoindol-2-yl)piperidine-2,6-dione] are 37.63, 40.7 nM, 407 nM and 62.92.
As to `O=C1CCC(N2Cc3cc(O[C@H]4CCN(Cc5cc6cc(C7CCOCC7)ccc6cn5)C4)ccc3C2=O)C(=O)N1` (stereo partly drawn) [3-(5-{[(3S)-1-{[6-(oxan-4-yl)isoquinolin-3-yl]methyl}pyrrolidin-3-yl]oxy}-1-oxo-2,3-dihydro-1H-isoindol-2-yl)piperidine-2,6-dione], the “293T-LentiX WEE1-ePL Degradation 4 hr (Ymin)” value at WEE1 (setting [1]) is reported as 33.5. In addition, the DC50 on WEE1 is 5.55 nM. Further, the EC50 in the test with MKN45 cells (growth inhibition) turned out to be 12.3 nM. The “MKN45 Cell Prolif. 120 hr (Ymin-Obs)” value in the test on MKN45 cells was found to be 13.12.
On the same counts, the results for `O=C1CCC(N2Cc3cc(O[C@H]4CCN(Cc5ccc6[nH]c(=O)ccc6c5)C4)ccc3C2=O)C(=O)N1` (stereo partly drawn) [3-(1-oxo-5-{[(3S)-1-[(2-oxo-1,2-dihydroquinolin-6-yl)methyl]pyrrolidin-3-yl]oxy}-2,3-dihydro-1H-isoindol-2-yl)piperidine-2,6-dione] are 40.56, 74.7 nM, 610 nM and 17.75.
For `O=C1CC[C@@H](N2Cc3cc(O[C@H]4CCN(Cc5ccc6nc(C7CCOCC7)ccc6c5)C4)ccc3C2=O)C(=O)N1` [(3R)-3-(5-{[(3S)-1-{[2-(oxan-4-yl)quinolin-6-yl]methyl}pyrrolidin-3-yl]oxy}-1-oxo-2,3-dihydro-1H-isoindol-2-yl)piperidine-2,6-dione], the “293T-LentiX WEE1-ePL Degradation 4 hr (Ymin)” value at WEE1 (setting [1]) is 33. At WEE1, the DC50 worked out at 6.75 nM. In the test on MKN45 cells (growth inhibition), the EC50 was found to be 6.12 nM. Moreover, in the test on MKN45 cells, the “MKN45 Cell Prolif. 120 hr (Ymin-Obs)” value was determined as 9.677.
On the same counts, the results for `O=C1CCC(N2Cc3cc(O[C@@H]4CCN(Cc5ccc6nc([C@@H]7CCOC7)ncc6c5)C4)ccc3C2=O)C(=O)N1` (relative stereo) [rel-3-(1-oxo-5-{[(3R)-1-({2-[(3S)-oxolan-3-yl]quinazolin-6-yl}methyl)pyrrolidin-3-yl]oxy}-2,3-dihydro-1H-isoindol-2-yl)piperidine-2,6-dione] are 34, 21.8 nM, 18.5 nM and 7.06.
Turning to `O=C1CCC(N2Cc3cc(O[C@H]4CCN(Cc5cnc6c(c5)CCOC6)C4)ccc3C2=O)C(=O)N1` (stereo partly drawn) [3-(1-oxo-5-{[(3S)-1-({5H,6H,8H-pyrano[3,4-b]pyridin-3-yl}methyl)pyrrolidin-3-yl]oxy}-2,3-dihydro-1H-isoindol-2-yl)piperidine-2,6-dione], the “293T-LentiX WEE1-ePL Degradation 4 hr (Ymin)” value at WEE1 (setting [1]) is 30. Also, the DC50 at WEE1 was 27.3 nM. Besides, the EC50 in the test on MKN45 cells (growth inhibition) worked out at 252 nM. Besides, the “MKN45 Cell Prolif. 120 hr (Ymin-Obs)” value in the test with MKN45 cells came to 8.89.
As for `CC1(C)CCN(c2ccc3cc(CN4CC[C@H](Oc5ccc6c(c5)CN(C5CCC(=O)NC5=O)C6=O)C4)ccc3n2)C1=O` (stereo partly drawn) [3-(5-{[(3S)-1-{[2-(3,3-dimethyl-2-oxopyrrolidin-1-yl)quinolin-6-yl]methyl}pyrrolidin-3-yl]oxy}-1-oxo-2,3-dihydro-1H-isoindol-2-yl)piperidine-2,6-dione], the “293T-LentiX WEE1-ePL Degradation 4 hr (Ymin)” value on WEE1 (setting [1]) is on record as 29.67. Also, the DC50 at WEE1 turned out to be 7.36 nM. The EC50 in the test with MKN45 cells (growth inhibition) was found to be 3.88 nM. For the same compound, the “MKN45 Cell Prolif. 120 hr (Ymin-Obs)” value in the test on MKN45 cells was 7.37.

For the origin of these results see patent publication US20240067632A1, “WEE1 Degrading Compounds and Uses Thereof” (Bristol-Myers Squibb Company, priority 2022, published 2024).
